Measured values published in PubChem BioAssay AID602131 (Sanford-Burnham Center for Chemical Genomics, 2011).
The source made the active and inactive calls.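 The calls were made as follows: active = IC50 at or below 20 µM; inactive = the rest.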

Target: glucose-6-phosphate dehydrogenase-6-phosphogluconolactonase (PfGluPho), Plasmodium falciparum 3D7
Test: PfGluPho enzyme inhibitors, SAR follow-up, biochemical, fluorescence intensity, dose response, set 3 (AID 602131)
Settings: recombinant PfGluPho, NADPH resazurin-diaphorase fluorescence

How did the IC50 turn out when `CCC(C)N(CCNC(=O)c1ccc2c(c1)NC(=O)c1ccccc1S2)C1CCCCC1` (centres undefined) was run?
Its IC50 is 14.1 µM.

Which IC50 does the source give for `NCCNC(=O)c1ccc2c(c1)NC(=O)c1ccccc1S2` here?
The IC50 was > 80 µM (inactive).

How did the IC50 turn out when `O=C(NCCN1CCOCC1)c1ccc2c(c1)NC(=O)c1ccccc1S2` was run?
Its IC50 is > 80 µM (inactive).

With `NC1CCN(C(=O)c2ccc3c(c2)NC(=O)/C(=C/c2ccccc2F)S3)C1` (centres undefined) as the compound, how does the IC50 read?
The IC50 was “inactive”.

`CCN1CCC[C@@H]1CNC(=O)c1ccc2c(c1)NC(=O)/C(=C/c1ccccc1F)S2` was tested. Which IC50 did it give?
Its IC50 is 0.889 µM.

For `CCN(CC)CCCC(C)Nc1ccnc2cc(Cl)ccc12` (centres undefined), which IC50 is on record?
The IC50 was > 80 µM (inactive).

`CCN1CCCC1CNC(=O)c1ccc2c(c1)NC(=O)C(Cc1ccccc1F)S2` (centres undefined) was tested. Which IC50 did it give?
Its IC50 is > 80 µM (inactive).

How did the IC50 turn out when `CCN1CCC[C@H]1CNC(=O)c1ccc2c(c1)NC(=O)/C(=C/c1ccccc1F)S2` was run?
The IC50 was 6.59 µM.

`NC1CCN(C(=O)c2ccc3c(c2)NC(=O)c2ccccc2S3)C1` (centres undefined) was tested. Which IC50 did it give?
The IC50 was > 80 µM (inactive).

How did the IC50 turn out when `CN(C)c1ccccc1CNC(=O)c1ccc2c(c1)NC(=O)/C(=C/c1ccccc1F)S2` was run?
The IC50 was > 80 µM (inactive).

Which IC50 does the source give for `CCN1CCCC1CNC(=O)c1ccc2c(c1)NC(=O)/C(=C/c1ccc(F)cc1)S2` (centres undefined) here?
The IC50 was 1.41 µM.

Which IC50 does the source give for `CCN1CCC[C@H]1CNC(=O)c1ccc2c(c1)NC(=O)c1ccccc1S2` here?
The IC50 was “inactive”.

`O=C(NCCNC1CCCCC1)c1ccc2c(c1)NC(=O)c1ccccc1S2` was tested. Which IC50 did it give?
Its IC50 is “inactive”.

Which IC50 does the source give for `CCC(C)N1CCCC1CNC(=O)c1ccc2c(c1)NC(=O)c1ccccc1S2` (centres undefined) here?
Its IC50 is 9.23 µM.

With `CCN1CCC[C@@H]1CNC(=O)c1ccc2c(c1)NC(=O)c1ccccc1S2` as the compound, how does the IC50 read?
The IC50 was 5.05 µM.

How did the IC50 turn out when `CCN(CC)CCNC(=O)c1ccc2c(c1)NC(=O)/C(=C/c1ccccc1F)S2` was run?
Its IC50 is 6.86 µM.

For `CCN1CCCC1CNC(=O)c1ccc2c(c1)NC(=O)/C(=C/c1ccc3ccccc3c1)S2` (centres undefined), which IC50 is on record?
Its IC50 is 2.39 µM.

`CC(C)(C)OC(=O)N1CCCC1CNC(=O)c1ccc2c(c1)NC(=O)/C(=C/c1ccccc1F)S2` (centres undefined) was tested. Which IC50 did it give?
Its IC50 is > 80 µM (inactive).

Which IC50 does the source give for `O=C(NCCN1CCCCC1)c1ccc2c(c1)NC(=O)c1ccccc1S2` here?
Its IC50 is “inactive”.
